Experiments:
[1] = system: Lactate Dehydrogenase (LDH); assay: Western blot, Lactate Dehydrogenase levels; assay type: cell-based, human
Experimental: The samples were processed and run on a 4-12% Bis-Tris Novex NuPAGE gel as described above. The gels were run, transferred and stained essentially as described above.
After transfer each blot was dried for 15-20 minutes, activated with methanol for 5 seconds, washed with water for 5 minutes, and TBST for 15 minutes. The blots were blocked for 1 hour with 5% blocking reagent in TBS-T at room temperature and then washed 3 times with TBS-T (1×-15′; 2×5′ each) and probed with the primary antibody for Lactate Dehydrogenase (abcam ab2101; polyclonal) in 5% BSA (at 1:1000 dilutions) by incubation overnight at 4 deg C. with shaking. After the overnight incubation with primary antibody for Lactate Dehydrogenase, the blots were washed 3 times with TBS-T (1×-15′; 2×5′ each) and probed with the secondary antibody (rabbit antigoat; 1:10,000 dilution) for 1 h at room temperature. After 1 h of incubation with secondary antibodies, the blots were washed 3 times with TBS-T (1×-15′; 2×5′ each) and then incubated with ECF reagent for 5 mins and then each blot scanned with 5100 Fuji Laser scanner at 25 uM resolution, 16 bit, green laser, at 400V and at 500 V.
The PACA2 samples were processed and the gels were run, transferred, stained and scanned essentially as described above.
The levels of LDH and PDH were determined by probing the blots successively with primary antibodies for LDH and PDH, essentially as described above.
The above blots were stripped by incubating for 30 minutes with methanol, followed by two 10 minute washes with TBS-T, then 30 minutes of incubation with Stripping buffer at 50 deg C., and followed by two washes with 100 ml or more of TBS-T for 30′ each. The blots were scanned in laser scanner to check for complete stripping. The blots were activated with methanol for 5 seconds, washed with water for 5 minutes, and TBST for 15 minutes. The blots were blocked for 1 hour with 5% blocking reagent in TBS-T at room temperature and then washed 3 times with TBS-T (1×-15′; 2×5′ each) and probed with the primary antibody for LDH or Bik in 5% BSA in TBS-T by incubation overnight at 4 deg C. with gentle shaking. The primary antibody for LDH was from Abcam ab2101; antigoat; at 1:1000 dilution. The primary antibody for Bik was from Cell Signaling #9942; antirabbit; at 1:1000 dilution. After incubation with primary antibodies, the membranes were washed 3 times with TBS-T (1×-15′; 2×5′ each) and probed with the secondary antibody (LDH antigoat; Jackson Laboratories) and Bik antirabbit; 1:10,000 dilution) for 1 h on the orbital tilting shaker at room temperature. After 1 h of incubation, the blots were washed 3 times with TBS-T (1×-15′; 2×5′ each) and incubated with ECF reagent for 5 minutes and then each blot scanned with 5100 Fuji Laser scanner at 25 uM resolution, 16 bit, green laser, at 400V and at 500 V.
The above blots were stripped by incubating for 30 minutes with methanol, followed by two 10 minute washes with TBS-T, then 30 minutes of incubation with stripping buffer at 50 deg C., and followed by two washes with 100 ml or more of TBS-T for 30′ each. The blots were activated with methanol for 5 seconds, washed with water for 5 minutes, and TBST for 15 minutes. The blots ere blocked for 1 hour with 5% blocking reagent in TBS-T at room temperature and then washed 3 times with TBS-T (1×-15′; 2×5′ each) and probed with the primary antibody for LDH in 5% BSA or 5% milk by incubation overnight at 4 deg C. with gentle shaking. The primary antibody for LDH 080309b1 (Abcam ab2101; antigoat) was at 1:1000 dilution in 5% BSA. The primary antibody for LDH 080309b2 (Abcam ab2101; antigoat) was at 1:1000 dilution in 5% milk. After incubation with primary antibodies, the membranes were washed 3 times with TBS-T (1×-15′; 2×5′ each) and probed with the secondary antibody (Jackson Immuno Research antigoat; 1:10,000 dilution; 305-055-045) for 1 h. […]

HASMC cells = assay: Extracellular acidification rate (ECAR), SeaHorse XF analyzer; assay type: cell-based, human; conditions: hyperglycemic HASMC cells in hypoxic conditions
Excerpt: Environmental influencers (e.g., MIMs or Epi-shifters) may also be identified by changes in cellular energetics. One example of the measurement of cellular energetics are the real-time measures of the consumption of molecular oxygen and/or the change in pH of the media of a cell culture. For example, the ability of a potential epi-shifter to modulate the metabolic state of a cell may be analyzed using, for example, the XF24 Analyzer (Seahorse, Inc.). This technology allows for real time detection of oxygen and pH changes in a monolayer of cells in order to evaluate the bioenergetics of a cell microenvironment. The XF24 Analyzer measures and compares the rates of oxygen consumption (OCR), which is a measure of aerobic metabolism, and extracellular acidification (ECAR), which is a measure of glycolysis, both key indicators of cellular energetics.
(SeaHorse Biosciences Inc, North Billerica, Mass.).
In this experiment, the OCR and extracellular acidification rate (ECAR) in normal cells lines were obtained in the presence and absence of CoQ10 to determine baseline values. It was observed that in its native nutrient environment, the basal OCR rates in normal cells lines are different, and are usually a function of the physiological roles of the cells in the body.
In Table 52 the measured baseline ECAR values (mpH/min) in HASMC were higher compared to that of HDFa. […]

**Q.** Which Lactate Dehydrogenase Average Volume as a % ([1]; HepG2, 5g24-50, 2 Experiments) does the source give for COC1=C(OC)C(=O)C(C/C=C(\C)CC/C=C(\C)CC/C=C(\C)CC/C=C(\C)CC/C=C(\C)CC/C=C(\C)CC/C=C(\C)CC/C=C(\C)CC/C=C(\C)CCC=C(C)C)=C(C)C1=O [Q10, Coenzyme Q10] here?
**A.** Its Lactate Dehydrogenase Average Volume as a % is 64%.

**Q.** What about the Lactate Dehydrogenase Average Volume as a % ([1]; HepG2, 5g24-100, 2 Experiments) of the same molecule?
**A.** Its Lactate Dehydrogenase Average Volume as a % is 106%.

**Q.** What about the Lactate Dehydrogenase Average Volume as a % ([1]; HepG2, 5g48-50, 2 Experiments) of the same molecule?
**A.** The Lactate Dehydrogenase Average Volume as a % was 112%.

**Q.** What about the Lactate Dehydrogenase Average Volume as a % ([1]; HepG2, 5g48-100, 2 Experiments) of the same molecule?
**A.** The Lactate Dehydrogenase Average Volume as a % was 121%.

**Q.** What about the “Lactate Dehydrogenase Normalized Volume” value ([1]; HepG2, 5g-50, 24 h) of the same molecule?
**A.** Its value is 7900.

**Q.** And the “Lactate Dehydrogenase Normalized Volume” value ([1]; HepG2, 5g-50, 48 h)?
**A.** The value was 5188.

**Q.** What about the “Lactate Dehydrogenase Normalized Volume” value ([1]; HepG2, 5g-100, 24 h) of the same molecule?
**A.** Its value is 6616.

**Q.** And the “Lactate Dehydrogenase Normalized Volume” value ([1]; HepG2, 5g-100, 48 h)?
**A.** Its value is 7319.

**Q.** What about the Lactate Dehydrogenase Average Volume as a % ([1]; HepG2, 22G24-50, 2 Experiments) of the same molecule?
**A.** Its Lactate Dehydrogenase Average Volume as a % is 121%.

**Q.** And the Lactate Dehydrogenase Average Volume as a % ([1]; HepG2, 22G24-100, 2 Experiments)?
**A.** The Lactate Dehydrogenase Average Volume as a % was 144%.

**Q.** And the Lactate Dehydrogenase Average Volume as a % ([1]; HepG2, 22G48-50, 2 Experiments)?
**A.** Its Lactate Dehydrogenase Average Volume as a % is 95%.

**Q.** And the Lactate Dehydrogenase Average Volume as a % ([1]; HepG2, 22G48-100, 2 Experiments)?
**A.** The Lactate Dehydrogenase Average Volume as a % was 67%.

**Q.** And the “Lactate Dehydrogenase Normalized Volume” value ([1]; HepG2, 22G-50, 24 h)?
**A.** The value was 7550.

**Q.** And the “Lactate Dehydrogenase Normalized Volume” value ([1]; HepG2, 22G-50, 48 h)?
**A.** Its value is 6173.

**Q.** And the “Lactate Dehydrogenase Normalized Volume” value ([1]; HepG2, 22G-100, 24 h)?
**A.** Its value is 7124.

**Q.** What about the “Lactate Dehydrogenase Normalized Volume” value ([1]; HepG2, 22G-100, 48 h) of the same molecule?
**A.** The value was 9141.

**Q.** And the “Lactate Dehydrogenase Normalized Volume” value ([1]; PACA2, 5g-50, 24 h)?
**A.** The value was 5068.

**Q.** What about the “Lactate Dehydrogenase Normalized Volume” value ([1]; PACA2, 5g-50, 48 h) of the same molecule?
**A.** Its value is 2978.

**Q.** And the “Lactate Dehydrogenase Normalized Volume” value ([1]; PACA2, 5g-100, 24 h)?
**A.** The value was 3675.

**Q.** And the “Lactate Dehydrogenase Normalized Volume” value ([1]; PACA2, 5g-100, 48 h)?
**A.** The value was 2396.

**Q.** What about the “Lactate Dehydrogenase Normalized Volume” value ([1]; PACA2, 22G-50, 24 h) of the same molecule?
**A.** The value was 10218.

**Q.** And the “Lactate Dehydrogenase Normalized Volume” value ([1]; PACA2, 22G-50, 48 h)?
**A.** Its value is 2575.

**Q.** And the “Lactate Dehydrogenase Normalized Volume” value ([1]; PACA2, 22G-100, 24 h)?
**A.** Its value is 7158.

**Q.** And the “Lactate Dehydrogenase Normalized Volume” value ([1]; PACA2, 22G-100, 48 h)?
**A.** Its value is 3557.

**Q.** And the “Lactate Dehydrogenase (LDH) expression” value ([1]; cancer)?
**A.** The value was “reduced”.

**Q.** What about the “Lactate Dehydrogenase (LDH) expression” value ([1]; normal cells) of the same molecule?
**A.** The value was “minimal effect”.

**Q.** And the ECAR rates (HASMC cells)?
**A.** Its ECAR rates is “downward trend”.
